Source: the supplement of paper PMC10307832

Legend:
Experiment in all cases: relative viability (nuclei count vs DMSO), 5 days (fraction); higher = more cells survive
[1] = compound: C1COCCN1C2=NC(=NC3=C2OC4=C3C=CC=N4)C5=CC(=CC=C5)NC(=O)C6=CN=C(C=C6)N + C[C@@H](Oc1cc(-c2cnn(C3CCNCC3)c2)cnc1N)c1c(Cl)ccc(F)c1Cl [Crizotinib] (partner 1 µM)
How it was run: (§1)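 One day after seeding in 1536-well plates, lung cancer cell lines were dosed by pin tool. Dosing was either single-drug or a fixed anchor-drug dose plus five library-drug doses (not always all listed) in √10 steps. After 5 days, nuclei were stained in one fix-and-stain step and counted on 4× images, and relative viability is the nuclei count of treated wells over that of vehicle wells, given as the median of duplicate plates.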

[2] = compound: C1COCCN1C2=NC(=NC3=C2OC4=C3C=CC=N4)C5=CC(=CC=C5)NC(=O)C6=CN=C(C=C6)N + O=C(CCCCCCC(=O)Nc1ccccc1)NO [Vorinostat] (partner 1 µM)
How it was run: as §1

[3] = compound: Nc1ccccc1NC(=O)c1ccc(CNC(=O)OCc2cccnc2)cc1 [Entinostat] + CC1(C)CCC(c2ccc(Cl)cc2)=C(CN2CCN(c3ccc(C(=O)NS(=O)(=O)c4ccc(N[C@H](CCN5CCOCC5)CSc5ccccc5)c(S(=O)(=O)C(F)(F)F)c4)cc3)CC2)C1 [Navitoclax] (partner 0.5 µM)
How it was run: as §1

[4] = compound: Nc1ccccc1NC(=O)c1ccc(CNC(=O)OCc2cccnc2)cc1 [Entinostat] + O=C(c1cc(Cc2n[nH]c(=O)c3ccccc23)ccc1F)N1CCN(C(=O)C2CC2)CC1 [Olaparib] (partner 8 µM)
How it was run: as §1

Row | Cell Line | relative viability ([1]; first compound 0.02 µM) | relative viability ([1]; first compound 0.06325 µM) | relative viability ([1]; first compound 0.2 µM) | relative viability ([1]; first compound 0.6325 µM) | relative viability ([1]; first compound 2 µM) | relative viability ([2]; first compound 0.02 µM) | relative viability ([2]; first compound 0.06325 µM) | relative viability ([2]; first compound 0.2 µM) | relative viability ([2]; first compound 0.6325 µM) | relative viability ([2]; first compound 2 µM) | relative viability ([3]; first compound 0.02 µM) | relative viability ([3]; first compound 0.06325 µM) | relative viability ([3]; first compound 0.2 µM) | relative viability ([3]; first compound 0.6325 µM) | relative viability ([3]; first compound 2 µM) | relative viability ([4]; first compound 0.02 µM) | relative viability ([4]; first compound 0.06325 µM) | relative viability ([4]; first compound 0.2 µM) | relative viability ([4]; first compound 0.6325 µM) | relative viability ([4]; first compound 2 µM)
1 | NCI-H1355 | 0.969 | 1.21 | 1.07 | 1.02 | 0.936 | 0.695 | 0.737 | 0.614 | 0.598 | 0.538 | 0.987 | 0.946 | 0.747 | 0.583 | 0.444 | 0.669 | 0.698 | 0.647 | 0.535 | 0.356
2 | NCI-H1755 | 0.969 | 0.978 | 0.811 | 0.773 | 0.34 | 0.7 | 0.868 | 0.698 | 0.635 | 0.562 | 1.05 | 0.954 | 0.806 | 0.451 | 0.332 | 0.877 | 0.816 | 0.598 | 0.458 | 0.377
3 | NCI-H2009 | 0.984 | 1.11 | 0.927 | 1.07 | 0.72 | 0.697 | 0.82 | 0.73 | 0.7 | 0.739 | 1.21 | 1.19 | 1.13 | 0.816 | 0.52 | 0.673 | 0.695 | 0.639 | 0.486 | 0.434
4 | LK-2 | 0.21 | 0.247 | 0.203 | 0.279 | 0.258 | 0.125 | 0.317 | 0.247 | 0.273 | 0.257 | 0.719 | 0.752 | 0.659 | 0.443 | 0.21 | 0.857 | 0.904 | 0.584 | 0.475 | 0.239
5 | HCC-78 | 0.352 | 0.327 | 0.329 | 0.282 | 0.261 | 0.444 | 0.5 | 0.431 | 0.326 | 0.334 | 0.739 | 0.652 | 0.498 | 0.218 | 0.181 | 0.771 | 0.722 | 0.577 | 0.386 | 0.355
6 | NCI-H3122 | 0.312 | 0.236 | 0.242 | 0.271 | 0.24 | 0.924 | 1.09 | 0.946 | 1.06 | 0.639 | 1.04 | 1 | 1.12 | 0.989 | 0.712 | 0.653 | 0.622 | 0.604 | 0.517 | 0.452
7 | HOP-62 | 1.08 | 1.14 | 0.714 | 0.695 | 0.65 | 0.753 | 0.768 | 0.674 | 0.58 | 0.373 | 1.08 | 0.923 | 0.832 | 0.607 | 0.217 | 0.36 | 0.391 | 0.373 | 0.147 | 0.128
8 | BEN | 0.928 | 0.841 | 0.932 | 0.821 | 0.504 | 0.545 | 0.556 | 0.589 | 0.619 | 0.448 | 0.0534 | 0.0509 | 0.0495 | 0.0765 | 0.062 | 1.22 | 1.15 | 1.09 | 0.64 | 0.371
9 | ChaGo-K-1 | 1.2 | 1.14 | 1.01 | 1.26 | 0.717 | 0.746 | 0.829 | 0.73 | 0.67 | 0.515 | 1.23 | 1.04 | 1.11 | 0.783 | 0.679 | 0.426 | 0.425 | 0.497 | 0.358 | 0.331
10 | SK-MES-1 | 1.09 | 1.11 | 0.975 | 0.884 | 0.7 | 1.12 | 1.22 | 1.09 | 1.03 | 0.72 | 1.2 | 1.21 | 1.24 | 1.17 | 0.788 | 0.576 | 0.646 | 0.801 | 0.596 | 0.467
11 | NCI-H2085 | 0.971 | 0.947 | 0.817 | 0.887 | 0.522 | 0.736 | 0.802 | 0.75 | 0.704 | 0.706 | 1 | 1.06 | 1.04 | 0.801 | 0.604 | 0.755 | 0.726 | 0.717 | 0.592 | 0.378
12 | 201T | 1.02 | 1.05 | 1.03 | 1.01 | 0.736 | 0.964 | 1.03 | 0.931 | 0.94 | 0.769 | 1.2 | 1.16 | 1.1 | 0.959 | 0.779 | 0.838 | 0.775 | 0.694 | 0.489 | 0.459
13 | NCI-H2023 | 0.669 | 0.711 | 0.49 | 0.56 | 0.257 | 0.602 | 0.747 | 0.506 | 0.623 | 0.319 | 0.916 | 0.692 | 0.496 | 0.163 | 0.138 | 0.327 | 0.253 | 0.185 | 0.0826 | 0.0815
14 | NCI-H23 | 0.56 | 0.487 | 0.38 | 0.511 | 0.344 | 0.609 | 0.635 | 0.5 | 0.473 | 0.468 | 0.727 | 0.88 | 0.873 | 0.668 | 0.433 | 0.282 | 0.242 | 0.237 | 0.179 | 0.12
15 | LXF-289 | 0.859 | 0.903 | 0.821 | 0.858 | 0.604 | 0.792 | 0.895 | 0.619 | 0.821 | 0.547 | 0.929 | 0.908 | 0.922 | 0.786 | 0.567 | 1.07 | 0.978 | 0.875 | 0.714 | 0.523
16 | EKVX | 1.06 | 0.985 | 1.03 | 1.03 | 0.62 | 0.698 | 0.794 | 0.678 | 0.644 | 0.556 | 0.896 | 0.835 | 0.899 | 0.643 | 0.457 | 0.766 | 0.829 | 0.825 | 0.73 | 0.386
